From the supplement of paper PMC10702517
± gives the standard deviation.

Assay: chemical recovery from spiked human plasma; higher = better extraction
Conditions: pooled human plasma
[1] = extraction method: SPE only (HLB 96-well)
[2] = extraction method: solvent precipitation (ACN + hexane)
[3] = extraction method: PES+SPE (3 d PDMS equilibration then HLB SPE)
[4] = extraction method: SPE only (HLB 96-well), PES comparison experiment

| Compound | chemical recovery [1] [%] | chemical recovery [2] [%] | chemical recovery [3] [%] | chemical recovery [4] [%] |
| --- | --- | --- | --- | --- |
| CC(=O)c1c(C)c([N+](=O)[O-])c(C(C)(C)C)c([N+](=O)[O-])c1C [Musk ketone] | 1.17 ± 0.25 | 15.5 ± 3.3 | – | – |
| Cc1cc2cccc(C)c2cc1C [1,6,7-Trimethylnaphthalene] | 2.3 ± 4 | – | – | – |
| O=P(O)(O)Oc1ccccc1 [Phenylphosphate] | – | – | 0.213 ± 0.049 | – |
| CNC(=O)c1cc(Oc2ccc(NC(=O)Nc3ccc(Cl)c(C(F)(F)F)c3)cc2)ccn1 [Sorafenib] | 61.3 ± 14 | 74.4 ± 5.8 | – | – |
| CN1CCC[C@H]1c1cccnc1 [Nicotine] | 0.399 ± 0.15 | 49.1 ± 4.3 | 0.141 ± 0.063 | – |
| c1ccc2c(c1)[nH]c1ccncc12 [5-Carboline] | 34.1 ± 2.7 | 72.4 ± 3.9 | 25.1 ± 5 | 31.2 ± 3.7 |
| O=C(O)Cc1ccc(S(=O)(=O)O)cc1 [(4-Sulfophenyl)acetic acid] | – | – | – | 6.28 ± 4 |
| CC[N+](CC)(CC)CC [Tetraethylammonium] | 1.23 ± 0.72 | – | – | – |
| CNC(=O)Oc1ccccc1OC(C)C [Propoxur] | 37.5 ± 0.59 | 46.7 ± 3.7 | 33.3 ± 8.7 | – |
| O=C1CN(/N=C/c2ccc([N+](=O)[O-])o2)C(=O)N1 [Nitrofurantoin] | – | – | – | 54.8 ± 8.6 |
| CCNC(=O)c1cccc(C)c1 [N-Ethyl-3-methylbenzamide] | 37.3 ± 0.9 | 57.5 ± 1 | 29.2 ± 9.2 | – |
| CC(NC(C)(C)C)C(=O)c1cccc(Cl)c1 (stereo unspecified) [Bupropion] | 37.7 ± 3.8 | 23.5 ± 3.1 | 0.191 ± 0.047 | 38.7 ± 8.2 |
| CCn1cc[n+](C)c1 [1-Ethyl-3-methyl-imidazolium] | 0.856 ± 0.42 | – | – | – |
| CCCCC(CC)COP(=O)(O)OCC(CC)CCCC (stereo unspecified) [Bis(2-ethylhexyl)phosphate] | 20.3 ± 2.5 | 52.8 ± 4.3 | 16.4 ± 4.5 | 3.88 ± 1.6 |
| Cc1c([N+](=O)[O-])c(C)c([N+](=O)[O-])c(C(C)(C)C)c1[N+](=O)[O-] [Musk xylene] | 97.1 ± 31 | 33.5 ± 9.3 | – | – |
| CCCC1CC(C(=O)NC(C(C)Cl)C2OC(SC)C(O)C(O)C2O)N(C)C1 (stereo unspecified) [Clindamycin] | 37.9 ± 2.5 | 65.5 ± 3.8 | 36.7 ± 3.7 | – |
| O=C1C[C@@H]2OCC=C3CN4CC[C@]56c7ccccc7N1[C@H]5[C@H]2[C@H]3C[C@H]46 [Strychnine] | – | 59.5 ± 4.5 | – | – |
| Cc1nnc(-c2ccccc2)c(=O)[nH]1 [Metamitron-desamino] | 49.5 ± 3.9 | 73.9 ± 3.2 | 53 ± 3.3 | – |
| Cc1cccc2ccccc12 [1-Methylnaphthalene] | 2.62 ± 2 | – | – | – |
| CC[C@H](C)C(=O)O[C@H]1C[C@H](O)C=C2C=C[C@H](C)[C@H](CC[C@@H](O)C[C@@H](O)CC(=O)O)[C@H]21 [Pravastatin] | 28.1 ± 2.9 | 67 ± 6.7 | 31.6 ± 3.5 | 58.6 ± 5.1 |
| CCCCCCCCCCCCCCOS(=O)(=O)O [Tetradecylsulfate] | 28.4 ± 6.5 | 35.5 ± 5.1 | – | – |
| Cc1cc(=O)nc(C(C)C)[nH]1 [2-Isopropyl-6-methyl-pyrimidin-4-ol] | 34.6 ± 4 | 77.2 ± 3.2 | 45.2 ± 5.9 | 44.3 ± 8.5 |
| COP(=O)(OC)OC [Trimethylphosphate] | 3.11 ± 2.1 | 0.912 ± 1.3 | – | – |
| COc1cc([N+](=O)[O-])ccc1O [4-Nitroguaiacol] | 39.5 ± 6.2 | 82.7 ± 14 | 45.3 ± 6.9 | – |
